Experimental data: a melting point compilation (Tetko et al.; mined from patent text by program, amines drawn as free bases though some values may be those of a salt)

Row | melting point | Structure (SMILES)
1 | 319 to 320 °C | O=c1[nH]c(=Cc2ccc3ccccc3n2)c(=O)[nH]c1=Cc1ccc(F)cc1
2 | 163 to 166 °C | Cc1cc2cc(CN3CCCC3)cnc2cc1NC(=O)c1ccc(-c2ccc(F)cc2)c(F)c1
3 | 72 to 75 °C | Cc1cc(SC#N)c(C(C)C)cc1O
4 | 122 to 124 °C | Nc1cc(Oc2ccccc2)c([N+](=O)[O-])cc1Cl
5 | 150 to 152 °C | CC1C=CC(Oc2ccc(C(=O)O)o2)=C2N=C3CCCCC3=C21 (configuration not stated)
6 | 213 to 214 °C | CC(C)Cn1c(CNC(=O)OC(C)(C)C)c(-c2ccccc2)c2cc(-c3nc(C(=O)O)cs3)ccc2c1=O
7 | 263 to 266 °C | COc1ccc2oc3ccc([N+](=O)[O-])cc3c2c1C(=O)Nc1cccnc1
8 | 157 to 158 °C | CC(C)(C)c1ccc(NC(Nc2ccc(C(C)(C)C)cc2)Nc2ccc(C(C)(C)C)cc2)cc1
9 | 117 to 118 °C | O=C1C=CC(O)(c2cccc3ccccc23)C=C1
10 | 241 to 243 °C | CNc1nc(-c2ccccc2)c(-c2nc3ccccc3c(=O)n2-c2ccccc2OC)s1
11 | 75 to 76 °C | COC(=O)c1cc(NC(=O)c2cc(Br)ccc2Cl)ccc1-n1nc(C(F)(F)F)cc1C(F)(F)F
12 | 100 to 102 °C | COC(=O)Cc1cc(O)c(C(C)(C)C)cc1C
13 | 164 to 167 °C | CC(C)(C)c1cc(CCC(=O)NCCNc2cccc(Cl)c2C#N)cc(C(C)(C)C)c1O
14 | 165 to 166 °C | O=S(=O)(Cl)c1cc(S(=O)(=O)Cl)c2c(Cl)ccc(S(=O)(=O)Cl)c2c1
15 | 145 to 147 °C | O=c1occ(-c2ccccc2)n1-c1ccc(F)cc1
16 | 164 to 165 °C | Oc1cccc([C@H]2CCCC[C@@H]2NCCc2ccccc2)c1 (racemic)
17 | 291 °C | CNc1nc(N)nc(NC)n1
18 | 219 to 220 °C | C[C@@H](n1ncn(-c2ccc(-n3ccnn3)cc2)c1=O)[C@](O)(Cn1cncn1)c1ccc(F)cc1F
19 | 155 to 156 °C | c1ccc(COc2cncc(N3CCNCC3)n2)cc1
20 | 180 to 182 °C | O=C(c1ccc(-c2ccn(C(=O)c3ccc(Cl)cc3Cl)n2)cc1)N1Cc2cccn2Cc2ccccc21
21 | 138 to 140 °C | CC=CCSc1cc(C(=O)O)cc([N+](=O)[O-])c1-c1ccccc1
22 | 80 to 82 °C | COC(=O)c1ccccc1NC(=O)Cc1ccccc1C
23 | 214 to 216 °C | CCN(C(=O)c1cc(C(C)(C)C)c(OC(=O)c2cc(C(C)(C)C)c(O)c(C(C)(C)C)c2)c(C(C)(C)C)c1)c1ccc(C)cc1

Row | melting point | Structure (SMILES)
24 | 147 to 148 °C | COc1ccc(N2CCN(c3c(C)c(C)c4c(c3C)C(c3ccc(-c5ccccc5)cc3)C(C)(C)O4)CC2)cc1 (configuration not stated)
25 | 120 to 125 °C | CCOc1c(Nc2ccncc2)c(=O)c1=O
26 | 106 to 108 °C | CC(Oc1ccc(Oc2ncc(Cl)cc2Cl)cc1)C(=O)N1CCCO1 (configuration not stated)
27 | 219 °C | COc1ccc(-c2nc(S(=O)(=O)c3nccs3)[nH]c2-c2ccc(OC)cc2)cc1
28 | 320 to 321 °C | Cn1c(C2=CC(=O)c3ccccc3C2=O)ccc1C1=CC(=O)c2ccccc2C1=O
29 | 154 to 155 °C | CN(c1cccc2cc(C3=NCC(C)(CCN4CCOCC4)S3)[nH]c12)S(=O)(=O)c1cccs1 (configuration not stated)
30 | 107 to 108 °C | COc1ccc(C(=O)C=Cc2ccccc2[N+](=O)[O-])c(OC)c1OC
31 | 136 °C | COC(=O)Cc1cccc(NC(=O)NCC(=O)O)c1
32 | 122 to 124 °C | COC(=O)C(C)NC(=O)CCc1ccc(C(=O)CCl)cc1 (configuration not stated)
33 | 43 to 45 °C | CC(C)(C)C(=O)CC(=O)c1ccccc1
34 | 75 to 77 °C | Cc1cc(Oc2cccc(C(F)(F)F)c2)nc(C(=O)O)c1
35 | 63 to 65 °C | COc1cccc(Sc2ccccc2CC(=O)O)c1
36 | 225 to 226 °C | CCCc1c(O)ccc2c(=O)cc(-c3ccc(C(=O)OCC)cc3)oc12
37 | 200 to 202 °C | Cc1ccc(C(=O)Nc2ccc(-n3nc(C(F)(F)F)cc3C(F)(F)F)cc2)s1
38 | 81.5 to 82.5 °C | COc1ccc2cc([C@H](C)C(=O)OCC[Si](C)(C)C)ccc2c1
39 | 128 to 130 °C | CCc1nc2c(C)cc(C)nc2n1-c1ccc(CCNC(=O)NS(=O)(=O)c2cc3ccccc3s2)cc1
40 | 130 to 135 °C | Nc1ccc2c(c1N)CN(Cc1ccc(C(F)(F)F)cc1)CC2
41 | 81 to 91 °C | O=C(O)C(=O)c1ccco1
42 | 81 to 84 °C | COc1ccc(Oc2ccc(OC(=O)N3CCC(C)CC3)cc2)cc1
43 | 118 to 119 °C | CCOC(=O)Cc1ccc(CCNC(=O)c2ccc(Cl)cc2)cc1
44 | 55 to 56 °C | O=C(c1ccc(Cl)cc1Cl)C1(n2cncn2)CC1
45 | 66 to 68 °C | CCOC(=O)CC(=O)c1csc(-c2ccccc2)n1
46 | 110 to 111 °C | COC(=O)C(Cc1ccc(O)cc1)c1cc2cc(C#N)ccc2o1 (configuration not stated)

Row | melting point | Structure (SMILES)
47 | 112 to 113 °C | COc1cc2c(Cl)c(C#N)cnc2cc1OS(=O)(=O)C(F)(F)F
48 | 156 to 160 °C | Cn1cc(-c2cc(Cl)cc(Cl)c2)c(=O)c(-c2cccc(C(F)(F)F)c2)c1
49 | > 260 °C | O=C1c2ccccc2C(=O)c2sc(-c3cc(Br)c(Br)o3)nc21
50 | 55 to 56 °C | CC(C)(C)c1cc2c(s1)C(=O)N(c1cccc(Br)c1CO)C2
51 | 116 to 118 °C | Nc1ncc2ncn(CCC(CO)COC(=O)c3ccccc3)c2n1 (configuration not stated)
52 | 56 to 58 °C | CCOC(=O)CCC(=O)c1ccc(-c2ccccc2F)cc1
53 | 65 to 67 °C | O=C(NCCCl)Oc1ccccc1
54 | 173 to 174 °C | CC1OC(=S)Nc2ccc(-c3cccc(F)c3)cc21 (configuration not stated)
55 | 238 to 239 °C | O=C(CCc1ccccc1C(=O)O)Nc1cccc(/C=C/c2nc(C3CCC3)cs2)c1
56 | 189 to 191 °C | CCn1nc(-c2ccccc2)c(C(C)=O)c(Nc2cccc(Cl)c2)c1=O
57 | 190 to 191 °C | COc1ccc(-c2csc(CC(=O)O)n2)cc1OC1CC2CCC1C2 (configuration not stated)
58 | 150 °C | CCOC(=O)c1cn(CC)c2nc(N3CCN(Cc4ccc(Cl)cc4)CC3)ncc2c1=O
59 | 92 to 95 °C | O=Cc1c(Cl)nc(-c2ccccc2)n1Cc1ccc(Br)cc1
60 | 130 to 134 °C | O=C(NOC1CCCCO1)c1ccccc1 (configuration not stated)
61 | 121 to 122 °C | COc1ccc(C2Sc3cccc4cccc(c34)N(CCN(C)C)C(=O)C2O)cc1 (configuration not stated)
62 | 84 to 86 °C | CCOc1c([N+](=O)[O-])cnn1-c1c(Cl)cc(C(F)(F)F)cc1Cl
63 | 157 to 160 °C | C=C1CCN(S(=O)(=O)c2ccc(Cl)c(C(=O)O)c2)CC1
64 | 189 to 193 °C | COc1ccc(N2Cc3cnc(Nc4ccccc4)nc3N(C[C@@H](C)O)C2=O)cc1
65 | 236 to 238 °C | CN(C)CCNc1ccc(NCCN(C)C)c2c1C(=O)c1c(O)ccc(O)c1C2=O
66 | 216 to 220 °C | CC(C)OC(=O)c1ncn2c3cccc(Cl)c3c(=O)n(C)c12
67 | 77 to 79 °C | CCOC(=O)c1c(C)cc2cnc(Cc3ccccc3)nc2c1C
68 | 124 to 127 °C | O=C1C(CCO)Oc2ccccc2N1Cc1ccc([N+](=O)[O-])cc1 (configuration not stated)
69 | 128 to 130 °C | CCCn1nc(C(C)C)c(C(=O)OCOC(=O)C(C)(C)C)c1Cc1ccc(-c2ccccc2-c2nnn(C(c3ccccc3)(c3ccccc3)c3ccccc3)n2)cc1

Row | melting point | Structure (SMILES)
70 | 170 to 175 °C | CCCCc1nc(Cl)c(CC(=O)O)n1Cc1ccc(NC(=O)c2ccccc2C(=O)O)cc1
71 | 283 to 286 °C | CCn1c(N)c(C(=O)NC)c(=O)c2ccc(Cl)nc21
72 | 168 to 170 °C | NC(=O)N1c2ccccc2C=C(Br)c2ccccc21
73 | 258 to 260 °C | N#Cc1ncn2c(-c3cccnc3)ccnc12
74 | 110 to 111 °C | CCCc1nc(NC(=O)N(C)C)nc(N2CCOCC2)n1
75 | 194 to 196 °C | O=C(O)COc1ccc2cc(CNC(=O)c3cc(-c4ccc(Cl)cc4)oc3C(F)(F)F)ccc2c1
76 | 252 to 255 °C | CC(=O)N1CCC2(CC1)CSC1=C(O2)c2ccccc2C(=O)C1=O
77 | 122 to 124 °C | CCOC(=O)c1cnc(CCOC)nc1NCc1ccc(-c2ccccc2-c2nnn[nH]2)cc1
78 | 208 to 211 °C | COc1cc(Nc2nc3cccc(-c4ccc(CN)cc4)c3o2)cc(OC)c1OC
79 | 144 to 145 °C | CCn1nc(C#N)cc1-c1cn(C(C)C)c2cc(NS(C)(=O)=O)ccc12
80 | 121 to 123 °C | CCOc1ccc2c(c1)C(=O)Cc1c(Cl)cccc1S2
81 | 106 to 108 °C | COc1cccc(Cn2c(=O)c3c(Cl)cc(Cl)cc3n(Cc3ccccc3)c2=O)c1
82 | 142 to 143 °C | CC(O)C(NCc1ccc([N+](=O)[O-])cc1)C(=O)O (configuration not stated)
83 | 69 °C | COc1cc(O)c(C(=O)c2ccccc2)cc1CN(C)C
84 | 138 to 140 °C | CCC(Oc1cc(C)ccc1C)C(=O)OC1CC(O)C=C2C=CC(C)C(CCC3CC(O)CC(=O)O3)C21 (mixture of isomers)
85 | 169 to 170 °C | Cc1c(CC(=O)O)oc2ccc(C(C)(C)C)cc12
86 | 167 to 169 °C | COc1cc(OC)c(C=CC(=O)c2ccc(S(N)(=O)=O)cc2)cc1C#Cc1ccccc1N
87 | 102 °C | COC(CCCNC(=O)c1ccc2c(c1)C(=O)N(CCCC(OC)OC)C2=O)OC
88 | 138 to 139 °C | OCc1ccc2c(Cl)ccnc2c1
89 | 197 to 199 °C | N#Cc1c(N2CCCC2)cc(-c2ccc(Cl)cc2)c2c1Cc1ccccc1-2
90 | 111 to 113 °C | COc1cccc(C(C)N(C)CCCOc2ccc(S(=O)(=O)c3c(C(C)C)cn4ccccc34)cc2)c1 (configuration not stated)

Row | Structure (SMILES) | melting point
91 | CN(C)C(=N[N+](=O)[O-])N(Cc1cnc(Cl)s1)C(=S)Oc1ccccc1 | 161 to 162 °C
92 | CC1(CSc2ccc(Cl)cc2)COC2(CCCCCCCCCCC2)OO1 (configuration not stated) | 93 to 94 °C
93 | Cc1cccc(NC(=O)NC2N=C(c3ccccc3)c3ccsc3N(C)C2=O)c1 (configuration not stated) | 128 to 130 °C
94 | COCc1ncn2c1CN(C)C(=O)c1c(Cl)cccc1-2 | 143 to 144 °C
95 | CN1C(=S)[C@H](NC(=O)OCc2ccccc2)N=C(c2ccccc2)c2ccccc21 | 128 to 131 °C
96 | CN(Cc1nnc2n1-c1ccc(Cl)cc1C(c1ccccc1)=NC2)CC1CC1 | 171 to 176 °C
97 | Nc1ccc2c3c(cccc13)C(=O)N([C@@H]1CN3CCC1CC3)C2=O | 305 to 308 °C
